Results as given in ChEMBL document CHEMBL1201862, “PubChem BioAssay data set” (2004).
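Tested at 5 concentrations; 48 h exposure; 96-well plates; endpoints linearly interpolated, else capped at highest concentration. The concentration for 50% growth inhibition is given as GI50.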 Calls of active or inactive are those of the source. Rule as the data show it: active = GI50 up to about 1.1 µM and inactive = higher.

Legend:
Experiment in all cases: NCI tumour cell line growth inhibition, 48 h
[1] = test system: 786-0
[2] = test system: A498
[3] = test system: A549
[4] = test system: ACHN
[5] = test system: BT-549
[6] = test system: CAKI-1
[7] = test system: CCRF-CEM
[8] = test system: COLO 205
[9] = test system: DU-145
[10] = test system: EKVX
[11] = test system: HCC 2998
[12] = test system: HCT-116
[13] = test system: HCT-15
[14] = test system: HL-60
[15] = test system: HOP-62
[16] = test system: HOP-92
[17] = test system: HT-29
[18] = test system: Hs-578T
[19] = test system: K562
[20] = test system: KM12
[21] = test system: LOX IMVI
[22] = test system: M14
[23] = test system: MCF7
[24] = test system: MDA-MB-231
[25] = test system: MDA-MB-435
[26] = test system: MDA-N
[27] = test system: MOLT-4
[28] = test system: Malme-3M
[29] = test system: NCI-H226
[30] = test system: NCI-H23
[31] = test system: NCI-H460
[32] = test system: NCI-H522
[33] = test system: NCI/ADR-RES
[34] = test system: OVCAR-3
[35] = test system: OVCAR-4
[36] = test system: OVCAR-5
[37] = test system: OVCAR-8
[38] = test system: PC-3
[39] = test system: RXF 393
[40] = test system: SF-268
[41] = test system: SF-295
[42] = test system: SF-539
[43] = test system: SK-MEL-28
[44] = test system: SK-MEL-2
[45] = test system: SK-MEL-5
[46] = test system: SK-OV-3
[47] = test system: SN12C
[48] = test system: SNB-19
[49] = test system: SNB-75
[50] = test system: SR
[51] = test system: SW-620
[52] = test system: T47D
[53] = test system: TK-10
[54] = test system: U-251
[55] = test system: UACC-257
[56] = test system: UACC-62
[57] = test system: UO-31
[58] = test system: IGROV-1
[59] = test system: RPMI-8226

Q: Which GI50 [1] does the source give for O=C(Nc1nn(C(=O)c2cccnc2)c(=O)s1)c1ccc(Cl)cc1 here?
A: > 100 µM (inactive)

Q: And the GI50 [2]?
A: > 100 µM (inactive)

Q: What about the GI50 [3] of the same compound?
A: 99.8 µM (inactive)

Q: And the GI50 [4]?
A: > 100 µM (inactive)

Q: And the GI50 [5]?
A: > 100 µM (inactive)

Q: What about the GI50 [6] of the same compound?
A: 40.6 µM (inactive)

Q: What about the GI50 [7] of the same compound?
A: 34 µM (inactive)

Q: What about the GI50 [8] of the same compound?
A: 40.6 µM (inactive)

Q: And the GI50 [9]?
A: 85.9 µM (inactive)

Q: What about the GI50 [10] of the same compound?
A: 50.6 µM (inactive)

Q: What about the GI50 [11] of the same compound?
A: > 100 µM (inactive)

Q: And the GI50 [12]?
A: 84.5 µM (inactive)

Q: And the GI50 [13]?
A: 80.4 µM

Q: And the GI50 [14]?
A: 60.3 µM (inactive)

Q: And the GI50 [15]?
A: > 100 µM (inactive)

Q: And the GI50 [16]?
A: 61.5 µM (inactive)

Q: What about the GI50 [17] of the same compound?
A: > 100 µM (inactive)

Q: And the GI50 [18]?
A: 29.2 µM (inactive)

Q: What about the GI50 [19] of the same compound?
A: 47.5 µM (inactive)

Q: What about the GI50 [20] of the same compound?
A: 61.7 µM (inactive)

Q: What about the GI50 [21] of the same compound?
A: > 100 µM (inactive)

Q: And the GI50 [22]?
A: > 100 µM (inactive)

Q: And the GI50 [23]?
A: 77.3 µM (inactive)

Q: What about the GI50 [24] of the same compound?
A: > 100 µM (inactive)

Q: What about the GI50 [25] of the same compound?
A: > 100 µM (inactive)

Q: And the GI50 [26]?
A: > 100 µM (inactive)

Q: What about the GI50 [27] of the same compound?
A: 28.1 µM (inactive)

Q: And the GI50 [28]?
A: 31.6 µM (inactive)

Q: What about the GI50 [29] of the same compound?
A: 22.5 µM (inactive)

Q: What about the GI50 [30] of the same compound?
A: > 100 µM (inactive)

Q: And the GI50 [31]?
A: > 100 µM (inactive)

Q: What about the GI50 [32] of the same compound?
A: 21.7 µM (inactive)

Q: What about the GI50 [33] of the same compound?
A: > 100 µM (inactive)

Q: What about the GI50 [34] of the same compound?
A: 43.1 µM (inactive)

Q: What about the GI50 [35] of the same compound?
A: 84.7 µM (inactive)

Q: What about the GI50 [36] of the same compound?
A: > 100 µM (inactive)

Q: What about the GI50 [37] of the same compound?
A: > 100 µM (inactive)

Q: And the GI50 [38]?
A: 61.1 µM (inactive)

Q: And the GI50 [39]?
A: 15.6 µM (inactive)

Q: And the GI50 [40]?
A: 20.7 µM (inactive)

Q: And the GI50 [41]?
A: 46.3 µM (inactive)

Q: What about the GI50 [42] of the same compound?
A: 29.4 µM (inactive)

Q: And the GI50 [43]?
A: > 100 µM (inactive)

Q: What about the GI50 [44] of the same compound?
A: > 100 µM (inactive)

Q: And the GI50 [45]?
A: 31.4 µM (inactive)

Q: What about the GI50 [46] of the same compound?
A: 56.2 µM (inactive)

Q: And the GI50 [47]?
A: > 100 µM (inactive)

Q: And the GI50 [48]?
A: > 100 µM (inactive)

Q: What about the GI50 [49] of the same compound?
A: 29.4 µM (inactive)

Q: And the GI50 [50]?
A: > 100 µM (inactive)

Q: What about the GI50 [51] of the same compound?
A: > 100 µM (inactive)

Q: And the GI50 [52]?
A: 27 µM (inactive)

Q: What about the GI50 [53] of the same compound?
A: 76.6 µM (inactive)

Q: What about the GI50 [54] of the same compound?
A: 74 µM (inactive)

Q: And the GI50 [55]?
A: > 100 µM (inactive)

Q: What about the GI50 [56] of the same compound?
A: > 100 µM (inactive)

Q: What about the GI50 [57] of the same compound?
A: 1.8 µM (inactive)

Q: What does the source list for Nc1ncnc2c1ncn2C1OC(C(=O)OCCO)C(O)C1O (stereo not given)?
A: GI50 [1]: > 100 µM (inactive); GI50 [2]: > 100 µM (inactive); GI50 [3]: > 100 µM (inactive); GI50 [4]: > 100 µM (inactive); GI50 [5]: > 100 µM (inactive); GI50 [6]: > 100 µM (inactive); GI50 [7]: > 100 µM (inactive); GI50 [8]: > 100 µM (inactive); GI50 [9]: > 100 µM (inactive); GI50 [10]: > 100 µM (inactive); GI50 [12]: > 100 µM (inactive); GI50 [13]: > 100 µM; GI50 [14]: > 100 µM (inactive); GI50 [15]: > 100 µM (inactive); GI50 [16]: > 100 µM (inactive); GI50 [17]: > 100 µM (inactive); GI50 [18]: > 100 µM (inactive); GI50 [58]: > 100 µM (inactive); GI50 [19]: > 100 µM (inactive); GI50 [20]: > 100 µM (inactive); GI50 [21]: > 100 µM (inactive); GI50 [22]: > 100 µM (inactive); GI50 [23]: > 100 µM (inactive); GI50 [24]: > 100 µM (inactive); GI50 [25]: > 100 µM (inactive); GI50 [26]: > 100 µM (inactive); GI50 [27]: > 100 µM (inactive); GI50 [28]: > 100 µM (inactive); GI50 [29]: > 100 µM (inactive); GI50 [30]: > 100 µM (inactive); GI50 [31]: > 100 µM (inactive); GI50 [32]: > 100 µM (inactive); GI50 [33]: > 100 µM (inactive); GI50 [34]: > 100 µM (inactive); GI50 [35]: > 100 µM (inactive); GI50 [36]: > 100 µM (inactive); GI50 [37]: > 100 µM (inactive); GI50 [38]: > 100 µM (inactive); GI50 [59]: > 100 µM (inactive); GI50 [39]: > 100 µM (inactive); GI50 [40]: > 100 µM (inactive); GI50 [41]: > 100 µM (inactive); GI50 [42]: > 100 µM (inactive); GI50 [43]: > 100 µM (inactive); GI50 [44]: > 100 µM (inactive); GI50 [45]: > 100 µM (inactive); GI50 [46]: > 100 µM (inactive); GI50 [47]: > 100 µM (inactive); GI50 [48]: > 100 µM (inactive); GI50 [49]: > 100 µM (inactive); GI50 [50]: > 100 µM (inactive); GI50 [51]: > 100 µM (inactive); GI50 [52]: > 100 µM (inactive); GI50 [53]: > 100 µM (inactive); GI50 [54]: > 100 µM (inactive); GI50 [55]: > 100 µM (inactive); GI50 [56]: > 100 µM (inactive); GI50 [57]: > 100 µM (inactive)
